Assay results as given in article PMC6372667 (Experimental & Molecular Medicine, 2019).

Key:
[1] = target: BACE1 (human recombinant β-secretase) (Homo sapiens, UniProt P56817); test: In vitro BACE1 FRET enzyme assay; type: biochemical; conditions: mean ± S.D. of three experiments
Text: (§1) BACE1 (human recombinant β-secretase) ([…]) and the BACE1 FRET (fluorescence resonance energy transfer) assay kit Red were purchased from ThermoFisher Scientific (P2985; Waltham, MA, USA). […] For the cell culture experiment, Dulbecco’s modified Eagle’s medium (DMEM), Opti-MEM, fetal bovine serum (FBS), and penicillin/streptomycin were obtained from Capricorn Scientific (Ebsdorfergrund, Germany). β-secretase inhibitor III (β-SI) was purchased from Calbiochem (Darmstadt, Germany). The protease inhibitor mixture (a mixture of AEBSF, pepstatin A, E-64, bestain, leupeptin, and aprotinin) was purchased from Sigma-Aldrich (St. Louis, MO, USA). Enzyme-linked immunosorbent assay (ELISA) kits for Aβ40 and Aβ42 were obtained from IBL (Kunma, Japan). All chemicals and solvents used were reagent grade, purchased from commercial sources, and used as received.
The BACE1 FRET assay was carried out according to the manufacturer’s instructions with slight modifications as previously described. The assay was performed in a […] black plate using a multi-pipette.

Electric eel AChE = target: T1, Electric eel AChE (Electrophorus electricus, UniProt O42275); test: In vitro cholinesterase enzyme assay (Ellman), AChE; type: biochemical
T1 construct: purchased Sigma-Aldrich Co
Text: as §1
(§2) The inhibitory activities of pterosin derivatives against cholinesterases were measured using the method developed by Ellman et al.[32]. The reaction mixture contained 140 μL of sodium phosphate buffer (pH 8.0), 20 μL of test sample solution (final concentration of the compound 100 μM), and 20 μL of AChE or BChE solution, mixed and incubated for 15 min at room temperature. […] The reactions were initiated following the addition of 10 μL of DTNB and 10 μL of acetyl thiocholine iodide for the AChE assay or butyryl thiocholine chloride for the BChE assay in 96-well microplates, which were incubated for 15 min.

horse serum BChE = target: T2, horse serum BChE (Equus caballus, UniProt P81908); test: In vitro cholinesterase enzyme assay (Ellman), BChE; type: biochemical
T2 construct: horse serum BChE (EC 3.1.1.8); purchased Sigma-Aldrich Co; host or cells: horse serum
Text: as §1, §2

in vitro = in vitro ADME
Experimental: PAMPA (parallel artificial membrane permeation assay) was used as a high-throughput assay to predict BBB permeation. Porcine polar brain lipid (PBL) was used as an artificial membrane to predict BBB permeation. Initially, the test compound was dissolved in DMSO at 5 mg/mL. This compound stock solution (10 µL) was diluted 200-fold in a universal buffer at pH 7.4 and mixed with a multi 8-channel pipette to obtain the secondary stock solution (final concentration 25 µg/mL). The secondary stock solution (200 µL) was placed in the donor wells. The filter membrane was coated with PBL in dodecane (4 mL volume of 20 mg/mL PBL in dodecane), and 5 µL of BBB-1 lipid solution was spread on PBL by pipette. The acceptor well was filled with […] of Acceptor Sink Buffer. The acceptor filter plate was cautiously positioned on the donor plate to assemble a “sandwich” (comprising an aqueous acceptor, artificial lipid membrane and aqueous donor with test compound on the top, middle and bottom, respectively). The test compound diffuses from the donor well to the acceptor well through the lipid membrane. After 4 h of incubation at pH 7.4 and 25 °C, the concentration of the compound in the acceptor, donor, reference and blank wells was estimated with a UV plate reader, Epoch Microplate Spectrophotometer (BioTek Instruments, Inc., Winooski, VT, USA). […] Samples were analyzed in quadruplets, and the average of the four runs was reported. To monitor the consistency of the analysis set, quality control standards were run with each sample set.
PAMPA-BBB, an in vitro artificial membrane permeability assay for the BBB, is one of the most reliable physicochemical screening tools in the early stage discovery of CNS-targeted drugs. The PAMPA-BBB system models the transcellular passive diffusion of chemicals across the BBB and measures strictly passive transport mechanisms via an artificial lipid membrane on effective permeability (Pe, cm/s).

[2] = tested on: SH-SY5Y human neuroblastoma; test: MTT cytotoxicity assay, SH-SY5Y; type: cell-based; conditions: 24 h
Experimental: (§3) Cytotoxicity was assessed using the MTT assay. Briefly, the cells were seeded into a 96-well plate at a density of 1×10^5 cells per well in 100 µL of corresponding media and incubated at 37 °C in an incubator under 5% CO2 tension for 24 h. The culture media were then replaced with 100 µL of fresh serum-free media in the presence of varied concentrations of pterosin derivatives, and cells were incubated for an additional 24 h. The control was treated with an equal amount of DMSO present in the assay for a 5 mM concentration. Then, 100 µL of MTT solution (0.5 mg/mL in Phosphate Buffered Saline (PBS)) was added to each culture. To measure the proportion of surviving cells, the media were replaced with 100 µL of DMSO 2 h after the administration of MTT solution. The absorbance was measured at 570 nm using a spectrophotometric plate reader (Molecular Devices, Sunnyvale, CA, USA).

C6 rat glial cells = test: MTT cytotoxicity assay, C6; type: cell-based; conditions: 24 h
Experimental: as §3

[3] = tested on: NIH3T3 mouse embryo fibroblasts; test: MTT cytotoxicity assay, NIH3T3; type: cell-based; conditions: 24 h
Experimental: as §3

B16F10 mouse melanoma = test: MTT cytotoxicity assay, B16F10; type: cell-based; conditions: 24 h
Experimental: as §3

[4] = tested on: SH-SY5Y, C6, NIH3T3 and B16F10 cell lines; test: MTT cytotoxicity assay, all cell lines tested; type: cell-based
Experimental: as §3

mouse models of diabetes = tested on: mouse models of diabetes; parameters: method as in PMID 23069626; conditions: cited from earlier work
[5] = tested on: mouse model of osteoarthritis; parameters: method as in PMID 27009967; conditions: 15 μL of 900 μM intra-articular, three times per week, 8–13 weeks ref 28; cited from earlier work
BACE1 = conditions: cited from earlier work
[6] = oral 100 mg/kg/day for 4 weeks ref 29, 30

T1 sequence (O42275 24-633): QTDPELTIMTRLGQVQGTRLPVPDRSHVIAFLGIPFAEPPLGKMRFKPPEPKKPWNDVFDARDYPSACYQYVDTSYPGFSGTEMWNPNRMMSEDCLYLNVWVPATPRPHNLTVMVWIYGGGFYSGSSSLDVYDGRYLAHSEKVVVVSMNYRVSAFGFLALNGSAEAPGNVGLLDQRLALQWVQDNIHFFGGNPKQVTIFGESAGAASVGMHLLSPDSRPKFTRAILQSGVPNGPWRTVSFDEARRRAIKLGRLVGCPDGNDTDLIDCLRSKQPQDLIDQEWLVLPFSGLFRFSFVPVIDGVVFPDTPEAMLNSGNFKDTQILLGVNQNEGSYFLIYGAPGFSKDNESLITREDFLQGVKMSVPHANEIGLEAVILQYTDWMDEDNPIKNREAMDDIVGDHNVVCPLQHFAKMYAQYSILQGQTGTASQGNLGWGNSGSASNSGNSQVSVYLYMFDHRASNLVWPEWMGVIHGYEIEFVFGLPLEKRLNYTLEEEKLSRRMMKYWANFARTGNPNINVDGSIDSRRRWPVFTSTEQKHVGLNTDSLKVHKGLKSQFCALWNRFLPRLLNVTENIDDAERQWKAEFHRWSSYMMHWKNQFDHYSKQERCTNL
Chain of BACE1 (human recombinant β-secretase) (P56817 46-501): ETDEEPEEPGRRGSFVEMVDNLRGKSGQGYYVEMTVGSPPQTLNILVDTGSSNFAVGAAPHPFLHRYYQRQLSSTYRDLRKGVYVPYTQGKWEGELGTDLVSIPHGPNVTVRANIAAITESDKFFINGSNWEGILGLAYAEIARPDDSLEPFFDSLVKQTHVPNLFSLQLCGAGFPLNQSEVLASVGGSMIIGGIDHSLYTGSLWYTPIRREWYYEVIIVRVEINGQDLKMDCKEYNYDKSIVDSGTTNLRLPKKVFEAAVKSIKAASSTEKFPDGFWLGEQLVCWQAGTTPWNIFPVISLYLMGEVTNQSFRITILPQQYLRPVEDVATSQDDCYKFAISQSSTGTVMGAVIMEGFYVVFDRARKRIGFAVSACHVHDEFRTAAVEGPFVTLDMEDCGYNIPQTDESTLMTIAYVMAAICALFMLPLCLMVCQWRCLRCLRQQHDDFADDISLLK
T2 sequence (P81908 whole entry): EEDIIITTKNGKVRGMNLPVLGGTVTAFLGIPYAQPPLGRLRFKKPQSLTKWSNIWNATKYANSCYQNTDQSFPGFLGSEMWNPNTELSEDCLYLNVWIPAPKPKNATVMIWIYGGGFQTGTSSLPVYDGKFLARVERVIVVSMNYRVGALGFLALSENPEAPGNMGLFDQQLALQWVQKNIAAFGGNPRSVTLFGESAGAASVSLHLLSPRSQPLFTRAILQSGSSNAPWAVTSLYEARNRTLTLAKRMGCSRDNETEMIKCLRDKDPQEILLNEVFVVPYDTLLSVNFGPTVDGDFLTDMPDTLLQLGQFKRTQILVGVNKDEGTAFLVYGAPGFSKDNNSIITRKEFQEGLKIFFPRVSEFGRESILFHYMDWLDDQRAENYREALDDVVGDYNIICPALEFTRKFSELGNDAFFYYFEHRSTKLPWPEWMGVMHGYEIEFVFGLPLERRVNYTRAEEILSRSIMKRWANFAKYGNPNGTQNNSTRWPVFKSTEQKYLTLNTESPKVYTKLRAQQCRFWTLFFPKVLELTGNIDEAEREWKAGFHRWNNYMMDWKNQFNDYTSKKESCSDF

`Cc1c(CCO)c(CO)cc2c1C(=O)[C@@H](C)C2` [(2S)-Pterosin P, (2S)-pterosin P] gave an IC50 [1] of 67.1 ± 7.7 µM, an IC50 (Electric eel AChE) of 17.8 ± 0.62 µM and an IC50 (horse serum BChE) of 55.9 ± 5.6 µM. For the same molecule, the “log Pe” value (in vitro; PAMPA-BBB) was -5.10, the BBB permeation class (in vitro; PAMPA-BBB, classified by Pe, given in words) was “high BBB permeation” and the Papp at 4 h, 25 µg/mL (in vitro; pig, PAMPA, 4 h, pH 7.4, 25 °C, mean ± SD of quadruple experiments, read-out: PAMPA-BBB permeability Pe) was 7.92 ± 0.36 ×10⁻⁶ cm/s. The “LD50 Based on MTT Assay, SY-SY5Y” value [2] was >5,000 µM, the “LD50 Based on MTT Assay, C6” value (C6 rat glial cells) was >5,000 µM and the “LD50 Based on MTT Assay, NIH3T3” value [3] was >5,000 µM. The “LD50 Based on MTT Assay, B16F10” value (B16F10 mouse melanoma) was >5,000 µM and the “LD50, cell lines tested” value [4] was “above 5 mM”.

For `Cc1cc2c(c(C)c1CCO)C(=O)C(C)(CO)C2` (centres unmarked) [pterosin A], the Oral bioavailability (mouse models of diabetes; diabetes animal experiment ref 29, 30) is listed as “good oral bioavailability”, the Adverse effects (mouse models of diabetes; [6]) is listed as “no significant adverse effects” and the “Effect on glucose intolerance and insulin resistance” value (mouse models of diabetes; [6]) is listed as “effectively improving glucose intolerance and insulin resistance”.

For `Cc1cc2c(c(C)c1CCO)C(=O)[C@H](C)C2` [pterosin B], the Adverse effects [5] is given as “without adverse effects” and the Effect on osteoarthritis [5] is given as “ameliorating osteoarthritis”.

For `CC#Cc1cncc(-c2ccc3c(c2)[C@@]2(N=C(C)C(N)=N2)[C@]2(CC[C@H](OC)CC2)C3)c1` [AZD3293], the Ki (BACE1) is listed as 0.0004 µM.
